Legend:
Transthyretin (TTR) [1] = assay: Serum TTR measurement in rats after LNP dosing; format: in vivo, Sprague Dawley female rats; conditions: Experiment 109; for Serum TTR % TSS: rat serum TTR relative to TSS control; for Serum TTR: rat serum, G534 sgRNA + Cas9 mRNA LNP
TTR rat gene = assay: In vivo editing in rat liver, sgRNA targeting TTR (G534), % indel by NGS; parameters: species or system Sprague Dawley female rats; conditions: G534 sgRNA + Cas9 mRNA LNP, Experiment 109
Experimental: Sprague Dawley female rats ranging from 6-7 weeks of age were used in each study. Each animal was weighed and dosing solutions were prepared based on body weight. LNPs were dosed via the lateral tail vein in a volume of 0.35 mL per animal (approximately 2 mL per kilogram body weight). The animals were periodically observed for adverse effects for at least 24 hours post dose.
For studies measuring in vivo editing in liver, animals were dosed at 0.1 mg/kg or 0.3 mg/kg. Animals were euthanized by CO2 asphyxiation 6 days post dose. At necropsy, the liver was collected for editing analysis by NGS and blood was collected into serum separator tubes for serum TTR measurement.
In brief, to quantitatively determine the efficiency of editing at the target location in the genome, genomic DNA was isolated and deep sequencing was utilized to identify the presence of insertions and deletions introduced by gene editing.
PCR primers were designed around the target site (e.g., within B2M), and the genomic area of interest was amplified. Additional PCR was performed according to the manufacturer's protocols (Illumina) to add the necessary chemistry for sequencing. The amplicons were sequenced on an Illumina MiSeq instrument. The reads were aligned to the mouse or rat reference genome (e.g., GRCm38) after eliminating those having low quality scores. The resulting files containing the reads were mapped to the reference genome (BAM files), where reads that overlapped the target region of interest were selected and the number of wild type reads versus the number of reads which contain an insertion, substitution, or deletion was calculated.
The editing percentage (e.g., the “indel efficiency” or “percent indels”) was defined as the total number of sequence reads with insertions or deletions over the total number of sequence reads, including wild type.
In vivo delivery in a rat model was assessed by measuring editing efficiency for materials delivered with formulations including various amine lipid compounds. Cas9 mRNA (SEQ ID NO: 6) was formulated as LNPs with an sgRNA targetting the TTR rat gene (G534, SEQ ID NO: 5). LNPs were formulated and characterized as described in Example 123. Analysis of average particle size, polydispersity (PDI), total RNA content and encapsulation efficiency of RNA are shown in Table 10.
Sprague Dawley female rats were dosed i.v. at 0.1 or 0.3 mg/kg and assessed for editing in liver.

Transthyretin (TTR) [2] = assay: Serum TTR ELISA in mice after LNP dosing; format: in vivo, CD-1 female mice; conditions: guide G282 experiments
In short: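 Female CD-1 mice, 6–10 weeks, given LNPs by tail-vein injection (~10 mL/kg), 0.1 mg/kg unless noted; serum taken at day 6 or 7 by cardiac puncture. Total mouse TTR by ELISA on sera diluted 10,000-fold (0.1 mg/kg) or 10,000- and 2,500-fold (0.3 mg/kg).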

[3] = Dynamic light scattering of LNPs: Z-average diameter, number average diameter, PDI; format: physicochemical
In short: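 LNP samples were diluted in PBS and measured by DLS to give intensity-based Z-average diameter, number average diameter and polydispersity index. PDI describes size spread around the mean, with zero meaning a uniform population.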

[4] = RNA encapsulation efficiency of LNPs (Ribogreen fluorescence assay); format: physicochemical
In short: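 LNPs were diluted in 1× TE with 0.2% Triton X-100 (total RNA) or without it (free RNA), stained with RiboGreen for ~10 min at room temperature in the dark, and read at Ex 488/Em 525 nm against standard curves of the starting RNA. Encapsulation efficiency = (Total − Free)/Total.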

[5] = LNP with G534 sgRNA and Cas9 mRNA, sg:mRNA 1:2, experiment 109
[6] = LNP, sg:mRNA 1:1, N/P about 6, 50/9/38/3, Table 2, Experiments 2-20

Number mean (nm) [3, 5]: 62 nm
PDI [3, 5]: 0.06
Z-avg (nm) [3, 5]: 80 nm
Number mean (nm) [3, 6]: 73.4 nm
PDI [3, 6]: 0.007
Z-avg (nm) [3, 6]: 88.53 nm
% E (encapsulation efficiency) [4, 5]: 97%
Encapsulation (%) ([4]; LNP, sg:mRNA 1:1, N/P about 6, amine lipid/DSPC/cholesterol/PEG-2k-DMG 50/9/38/3, Table 2, Experiments 2-20): 83%
SMILES: CCCCC/C=C\C/C=C\CCCCCCCC(=O)OCC(COC(=O)CCC(OCCCCCCCC)OCCCCCCCC)COC(=O)NCCN(CC)CC (stereo not shown) [Compound 12, 3-((4,4-bis(octyloxy)butanoyl)oxy)-2-((((2-(diethylamino)ethyl)carbamoyl)oxy)methyl)propyl (9Z,12Z)-octadeca-9,12-dienoate]
Serum TTR % TSS (Transthyretin (TTR) [1]; G534, i.v. 0.1 mg/kg): 45.9 % TSS
Serum TTR % TSS (Transthyretin (TTR) [1]; G534, i.v. 0.3 mg/kg): 5.5 % TSS
Serum TTR (Transthyretin (TTR) [1]; i.v. 0.1 mg/kg): 744.2 µg/mL
Serum TTR (Transthyretin (TTR) [1]; i.v. 0.3 mg/kg): 89.1 µg/mL
Editing Mean % Indel (TTR rat gene; i.v. 0.1 mg/kg): 37.6%
Editing Mean % Indel (TTR rat gene; i.v. 0.3 mg/kg): 62.5%
Serum TTR % TSS (Transthyretin (TTR) [2]; mouse serum TTR relative to TSS control): 81%
Serum TTR (Transthyretin (TTR) [2]; mouse serum, ELISA): 736 µg/mL

— patent publication US20220402862A1 (Intellia Therapeutics, Inc., priority 2019, published 2022)
